Measured values: US10266537B2, “3-acetylenyl-pyrazole-pyrimidine derivative, and preparation method therefor and uses thereof” (Si Chuan University, priority 2015, dated 2019)

Assays:
MDA-MB-231 = experiment: Cell proliferation inhibition assay (MTT); type: cell-based, human; settings: Homo sapiens; MDA-MB-231; MTT, 72 hours; read-out: Proliferative inhibitory activity MDA-MB-231 (IC50 class)
c-Src(1-530) = c-Src(1-530) (Homo sapiens (Human), UniProt P12931); experiment: Kinase inhibition assay (KinaseProfiler, 33P-ATP); settings: c-Src(1-530); ATP at Km
Chain of c-Src(1-530) (P12931 whole entry, looked up): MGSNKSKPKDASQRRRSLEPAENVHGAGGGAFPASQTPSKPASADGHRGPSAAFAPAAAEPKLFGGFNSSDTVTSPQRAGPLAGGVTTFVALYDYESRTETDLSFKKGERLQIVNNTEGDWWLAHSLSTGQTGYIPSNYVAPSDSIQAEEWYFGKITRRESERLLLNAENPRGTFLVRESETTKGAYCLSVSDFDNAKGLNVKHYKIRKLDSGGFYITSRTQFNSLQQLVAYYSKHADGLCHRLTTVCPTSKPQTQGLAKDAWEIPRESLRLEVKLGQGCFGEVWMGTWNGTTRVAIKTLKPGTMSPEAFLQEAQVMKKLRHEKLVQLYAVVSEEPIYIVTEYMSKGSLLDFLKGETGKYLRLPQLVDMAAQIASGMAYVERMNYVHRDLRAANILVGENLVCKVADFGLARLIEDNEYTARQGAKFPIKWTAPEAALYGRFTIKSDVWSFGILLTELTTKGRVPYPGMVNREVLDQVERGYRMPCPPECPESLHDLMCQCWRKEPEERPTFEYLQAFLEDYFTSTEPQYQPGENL

MDA-MB-435 = experiment: Cell proliferation inhibition assay (MTT); type: cell-based, human; settings: Homo sapiens; MDA-MB-435; MTT, 72 hours; read-out: Proliferative inhibitory activity MDA-MB-435 (IC50 class)

Row | Compound | IC50 (MDA-MB-231) | IC50 (c-Src(1-530)) | IC50 (MDA-MB-435)
1 | Cc1ccc(C(=O)Nc2ccc(CN3CCN(C)CC3)c(C(F)(F)F)c2)cc1C#Cc1nn(C2CCC2)c2ncnc(N)c12 [Compound 6] | < 100 nM | 9 nM | < 100 nM
2 | Cc1ccc(C(=O)Nc2ccc(CN3CCN(C)CC3)c(C(F)(F)F)c2)cc1C#Cc1nn(C2CCCC2)c2ncnc(N)c12 [Compound 7] | < 100 nM | 19 nM | < 100 nM
3 | Cc1ccc(C(=O)Nc2ccc(CN3CCN(C)CC3)c(C(F)(F)F)c2)cc1C#Cc1nn(C)c2ncnc(N)c12 [Compound 8] | < 100 nM | 7 nM | < 100 nM
4 | CC(C)n1nc(C#Cc2cc(C(=O)Nc3ccc(CN4CCN(C)CC4)c(C(F)(F)F)c3)ccc2Cl)c2c(N)ncnc21 [Compound 9] | 100 to 500 nM | 15 nM | < 100 nM
5 | CCc1ccc(C(=O)Nc2ccc(CN3CCN(C)CC3)c(C(F)(F)F)c2)cc1C#Cc1nn(CC)c2ncnc(N)c12 [Compound 10] | 100 to 500 nM | 83 nM | > 1000 nM
6 | CC(C)n1nc(C#Cc2cccc(C(=O)Nc3ccc(CN4CCN(C)CC4)c(C(F)(F)F)c3)c2)c2c(N)ncnc21 [Compound 11] | 500 to 1000 nM | 10 nM | < 100 nM
7 | Cc1cn(-c2cc(NC(=O)c3ccc(C)c(C#Cc4nn(C(C)C)c5ncnc(N)c45)c3)cc(C(F)(F)F)c2)cn1 [Compound 12] | > 1000 nM | 139 nM | > 1000 nM
8 | Cc1ccc(C(=O)Nc2cc(CN3CCN(C)CC3)cc(C(F)(F)F)c2)cc1C#Cc1nn(C(C)C)c2ncnc(N)c12 [Compound 13] | < 100 nM | 11 nM | 100 to 500 nM
9 | Cc1ccc(C(=O)Nc2cccc(C(F)(F)F)c2)cc1C#Cc1nn(C(C)C)c2ncnc(N)c12 [Compound 14] | 100 to 500 nM | 3 nM | > 1000 nM
10 | Cc1ccc(NC(=O)c2ccc(CN3CCN(C)CC3)c(C(F)(F)F)c2)cc1C#Cc1nn(C(C)C)c2ncnc(N)c12 [Compound 16] | < 100 nM | 7 nM | < 100 nM
11 | Cc1ccc(C(=O)Nc2ccc(CN3CCN(C)CC3)cc2)cc1C#Cc1nn(C(C)C)c2ncnc(N)c12 [Compound 17] | 100 to 500 nM | 4 nM | > 1000 nM
12 | Cc1ccc(NC(=O)c2cccc(C(F)(F)F)c2)cc1C#Cc1nn(C(C)C)c2ncnc(N)c12 [Compound 18] | < 100 nM | 4 nM | 100 to 500 nM
13 | COCn1nc(C#Cc2cc(C(=O)Nc3ccc(CN4CCN(C)CC4)c(C(F)(F)F)c3)ccc2C)c2c(N)ncnc21 [Compound 19] | < 100 nM | 8 nM | < 100 nM
14 | CCn1nc(C#Cc2cc(C(=O)Nc3ccc(CN4CCN(C)CC4)c(C(F)(F)F)c3)ccc2OC)c2c(N)ncnc21 [Compound 24] | 100 to 500 nM | 59 nM | > 1000 nM
15 | CCn1nc(C#Cc2cc(C(=O)Nc3ccc(CN4CCN(C)CC4)c(C(F)(F)F)c3)ccc2O)c2c(N)ncnc21 [Compound 25] | > 1000 nM | 3190 nM | > 1000 nM
16 | CCn1nc(C#Cc2cc(C(=O)Nc3ccc(CN4CCN(C)CC4)c(C(F)(F)F)c3)ccc2Cl)c2c(N)ncnc21 [Compound 26] | < 100 nM | 11 nM | < 100 nM
17 | CCn1nc(C#Cc2cccc(C(=O)Nc3ccc(CN4CCN(C)CC4)c(C(F)(F)F)c3)c2)c2c(N)ncnc21 [Compound 29] | < 100 nM | 5 nM | < 100 nM
18 | Cc1ccc(NC(=O)c2ccc(Cl)c(C(F)(F)F)c2)cc1C#Cc1nn(CC2CCN(C)CC2)c2ncnc(N)c12 [Compound 79] | < 100 nM | – | 500 to 1000 nM
19 | Cc1ccc(NC(=O)c2ccc(Cl)c(C(F)(F)F)c2)cc1C#Cc1nn(CC(=O)N2CCOCC2)c2ncnc(N)c12 [Compound 80] | < 100 nM | – | > 1000 nM
20 | Cc1ccc(NC(=O)c2ccc(Cl)c(C(F)(F)F)c2)cc1C#Cc1nn(C2CCN(S(C)(=O)=O)CC2)c2ncnc(N)c12 [Compound 81] | < 100 nM | – | 100 to 500 nM
21 | Cc1ccc(NC(=O)c2ccc(Cl)c(C(F)(F)F)c2)cc1C#Cc1nn(C[C@@H](C)CO)c2ncnc(N)c12 [Compound 82] | < 100 nM | – | 100 to 500 nM
22 | Cc1ccc(NC(=O)c2ccc(Cl)c(C(F)(F)F)c2)cc1C#Cc1nn(C[C@H](C)CO)c2ncnc(N)c12 [Compound 83] | < 100 nM | – | 100 to 500 nM
23 | Cc1ccc(NC(=O)c2ccc(Cl)c(C(F)(F)F)c2)cc1C#Cc1nn([C@@H]2CCN(S(C)(=O)=O)C2)c2ncnc(N)c12 [Compound 84] | < 100 nM | – | 100 to 500 nM
24 | Cc1ccc(NC(=O)c2ccc(Cl)c(C(F)(F)F)c2)cc1C#Cc1nn([C@@H]2CCN(C)C2)c2ncnc(N)c12 [Compound 85] | < 100 nM | – | > 1000 nM
25 | Cc1ccc(NC(=O)c2ccc(Cl)c(C(F)(F)F)c2)cc1C#Cc1nn(C2CCCN(C(=O)[C@H](C)O)C2)c2ncnc(N)c12 (stereo partly shown) [Compound 86] | < 100 nM | – | > 1000 nM
26 | Cc1ccc(NC(=O)c2ccc(Cl)c(C(F)(F)F)c2)cc1C#Cc1nn(C2CCCN(C(=O)[C@@H](C)O)C2)c2ncnc(N)c12 (stereo partly shown) [Compound 87] | < 100 nM | – | > 1000 nM

Row | Compound | IC50 (MDA-MB-231) | IC50 (c-Src(1-530)) | IC50 (MDA-MB-435)
27 | Cc1ccc(NC(=O)c2ccc(Cl)c(C(F)(F)F)c2)cc1C#Cc1nn([C@@H]2CCCN(C(=O)[C@@H](C)O)C2)c2ncnc(N)c12 [Compound 88] | < 100 nM | – | 100 to 500 nM
28 | Cc1ccc(NC(=O)c2ccc(Cl)c(C(F)(F)F)c2)cc1C#Cc1nn([C@@H]2CCCN(C)C2)c2ncnc(N)c12 [Compound 89] | < 100 nM | – | 100 to 500 nM
29 | Cc1ccc(NC(=O)c2ccc(Cl)c(C(F)(F)F)c2)cc1C#Cc1nn([C@@H]2CCCN(S(C)(=O)=O)C2)c2ncnc(N)c12 [Compound 90] | < 100 nM | – | 500 to 1000 nM
30 | Cc1ccc(NC(=O)c2ccc(Cl)c(C(F)(F)F)c2)cc1C#Cc1nn(C2CCCN(S(C)(=O)=O)C2)c2ncnc(N)c12 (stereo not shown) [Compound 91] | < 100 nM | – | 100 to 500 nM
31 | Cc1ccc(NC(=O)c2ccc(Cl)c(C(F)(F)F)c2)cc1C#Cc1nn(C2CCCN(C)C2)c2ncnc(N)c12 (stereo not shown) [Compound 92] | < 100 nM | – | 100 to 500 nM
32 | Cc1ccc(NC(=O)c2nc(C(C)(C)C)cs2)cc1C#Cc1nn(CC2CCN(C)C2)c2ncnc(N)c12 (stereo not shown) [Compound 94] | 100 to 500 nM | – | 100 to 500 nM
33 | Cc1ccc(NC(=O)c2nc(C(C)(C)C)cs2)cc1C#Cc1nn(C[C@@H](C)CO)c2ncnc(N)c12 [Compound 95] | 100 to 500 nM | – | < 100 nM
34 | Cc1ccc(NC(=O)c2nc(C(C)(C)C)cs2)cc1C#Cc1nn(CC2CCN(C)CC2)c2ncnc(N)c12 [Compound 96] | 100 to 500 nM | – | 100 to 500 nM
35 | Cc1ccc(NC(=O)c2nc(C(C)(C)C)cs2)cc1C#Cc1nn([C@@H]2CCN(C)C2)c2ncnc(N)c12 [Compound 97] | 100 to 500 nM | – | 100 to 500 nM
36 | Cc1ccc(NC(=O)c2ccc(C)c(C(F)(F)F)c2)cc1C#Cc1nn(CC2CCN(C)C2)c2ncnc(N)c12 (stereo not shown) [Compound 98] | < 100 nM | – | < 100 nM
37 | Cc1ccc(NC(=O)c2ccc(C)c(C(F)(F)F)c2)cc1C#Cc1nn(C[C@@H](C)CO)c2ncnc(N)c12 [Compound 99] | < 100 nM | – | 100 to 500 nM
38 | Cc1ccc(NC(=O)c2cccc(C(F)(F)F)c2)cc1C#Cc1nn(C[C@@H](C)CO)c2ncnc(N)c12 [Compound 101] | < 100 nM | – | < 100 nM
39 | CCn1nc(C#Cc2cc(NC(=O)c3ccc(CN4CCN(C)CC4)c(C(F)(F)F)c3)ccc2C)c2c(N)ncnc21 [Compound 102] | < 100 nM | – | < 100 nM
40 | Cc1ccc(C(=O)Nc2cccc(C(F)(F)F)c2)cc1C#Cc1nn([C@H]2CC[C@H](O)CC2)c2ncnc(N)c12 [Compound 103] | < 100 nM | – | < 100 nM
41 | CCNc1ncnc2c1c(C#Cc1cc(C(=O)Nc3cccc(C(F)(F)F)c3)ccc1C)nn2CC [Compound 104] | 100 to 500 nM | – | 100 to 500 nM
42 | Cc1ccc(C(=O)Nc2cccc(C(F)(F)F)c2)cc1C#Cc1nn(C[C@@H](C)CO)c2ncnc(N)c12 [Compound 105] | < 100 nM | – | 100 to 500 nM
43 | Cc1ccc(C(=O)Nc2cccc(C(F)(F)F)c2)cc1C#Cc1nn(C[C@H](C)CO)c2ncnc(N)c12 [Compound 106] | < 100 nM | – | < 100 nM
44 | Cc1ccc(C(=O)Nc2cccc(C(F)(F)F)c2)cc1C#Cc1nn([C@@H]2CCN(C)C2)c2ncnc(N)c12 [Compound 107] | < 100 nM | – | < 100 nM
45 | Cc1ccc(C(=O)Nc2cccc(C(F)(F)F)c2)cc1C#Cc1nn(CC2CCN(C)C2)c2ncnc(N)c12 (stereo not shown) [Compound 108] | < 100 nM | – | 100 to 500 nM
46 | Cc1ccc(C(=O)Nc2cccc(C(F)(F)F)c2)cc1C#Cc1nn(CC2CCN(C)CC2)c2ncnc(N)c12 [Compound 109] | < 100 nM | – | < 100 nM
47 | Cc1ccc(NC(=O)c2ccc(C)c(C(F)(F)F)c2)cc1C#Cc1nn(C[C@H](C)CO)c2ncnc(N)c12 [Compound 110] | < 100 nM | – | < 100 nM
48 | Cc1ccc(NC(=O)c2cccc(C(F)(F)F)c2)cc1C#Cc1nn(C[C@H](C)CO)c2ncnc(N)c12 [Compound 111] | < 100 nM | – | < 100 nM
49 | Cc1ccc(NC(=O)c2ccc(C)c(C(F)(F)F)c2)cc1C#Cc1nn(CC2CCN(C)CC2)c2ncnc(N)c12 [Compound 115] | < 100 nM | – | 100 to 500 nM
50 | Cc1ccc(NC(=O)c2ccc(C)c(C(F)(F)F)c2)cc1C#Cc1nn([C@@H]2CCN(C)C2)c2ncnc(N)c12 [Compound 116] | 100 to 500 nM | – | 100 to 500 nM
51 | Cc1ccc(NC(=O)c2cccc(C(C)(C)C)c2)cc1C#Cc1nn([C@H]2CC[C@H](O)CC2)c2ncnc(N)c12 [Compound 118] | < 100 nM | – | < 100 nM
52 | CCn1nc(C#Cc2cc(C(=O)Nc3cccc(C(F)(F)F)c3)ccc2C)c2c(N)ncnc21 [Compound 119] | 100 to 500 nM | – | 100 to 500 nM
